These compounds were tested on lambsquarters (assay: Test Example 5: herbicidal effect by foliage application, plastic box (Table 20, symbol O)). Conditions: foliage application, 320 g/ha, evaluated three weeks after application.
Assay type: in vivo, lambsquarters (Chenopodium album)
Summary of the method: (§1)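 Sow seeds spot-wise in sterilized diluvial soil; cover with ~1.5 cm soil. Grow 14 days in greenhouse, 25° C. to 30° C. Spray foliage with emulsion diluted to predetermined amount. Rate effect after 3 weeks.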
In the case of `Cc1nn(C)c(=O)c(-c2c(-c3cccc(OCC(C)C)c3)sc3ccc(F)cc23)c1O` [2-221], the “herbicidal effect on O: lambsquarters (criteria 0-5)” value is reported as 5 (Herbicidal rate of 90% or more (almost completely withered)). In the case of `Cc1nn(C)c(=O)c(-c2c(-c3cccc(OC(C)(C)C)c3)sc3ccc(F)cc23)c1O` [2-223], the “herbicidal effect on O: lambsquarters (criteria 0-5)” value is reported as 4 (Herbicidal rate of 70% or more and less than 90%).

These compounds were tested on southern crabgrass (assay: Test Example 4: herbicidal effect by soil treatment (Table 19, symbol F)). Conditions: amount of applied herbicide 320 g/ha.
Assay type: in vivo, southern crabgrass (Digitaria ciliaris)
Summary of the method: (§2)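 Applied as a water-diluted emulsion, the compound was sprayed onto soil covering newly sown seeds. Evaluation came three weeks after application, in a greenhouse held at 25° C. to 30° C.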
`Cc1nn(C)c(=O)c(-c2c(-c3cccc(OCC(C)C)c3)sc3ccc(F)cc23)c1O` [2-221] was tested, and the “F: southern crabgrass, herbicidal effect rating” value was 5 (Herbicidal rate of 90% or more (almost completely withered)). In the case of `Cc1nn(C)c(=O)c(-c2c(-c3cccc(OC(C)(C)C)c3)sc3ccc(F)cc23)c1O` [2-223], the “herbicidal effect on F: southern crabgrass” value is reported as 4 (Herbicidal rate of 70% or more and less than 90%).

These compounds were tested on persian speedwell (assay: Test Example 4: herbicidal effect by soil treatment (Table 19, symbol R)). Conditions: amount of applied herbicide 320 g/ha.
Assay type: in vivo, Persian speedwell (Veronica persica)
Summary of the method: as §2
For `Cc1nn(C)c(=O)c(-c2c(-c3cccc(OCC(C)C)c3)sc3ccc(F)cc23)c1O` [2-221], the “R: persian speedwell, herbicidal effect rating” value was 5 (Herbicidal rate of 90% or more (almost completely withered)). For `Cc1nn(C)c(=O)c(-c2c(-c3cccc(OC(C)(C)C)c3)sc3ccc(F)cc23)c1O` [2-223], the “herbicidal effect on R: persian speedwell” value was 4 (Herbicidal rate of 70% or more and less than 90%).

The compounds below were run on windgrass (assay: Test Example 5: herbicidal effect by foliage application, plastic box (Table 20, symbol L)). Conditions: foliage application, 320 g/ha, evaluated three weeks after application.
Assay type: in vivo, windgrass (Apera spica-venti)
Summary of the method: as §1
In the case of `Cc1nn(C)c(=O)c(-c2c(-c3cccc(OCC(C)C)c3)sc3ccc(F)cc23)c1O` [2-221], the “herbicidal effect on L: windgrass (criteria 0-5)” value is reported as 5 (Herbicidal rate of 90% or more (almost completely withered)). `Cc1nn(C)c(=O)c(-c2c(-c3cccc(OC(C)(C)C)c3)sc3ccc(F)cc23)c1O` [2-223] was tested, and the “herbicidal effect on L: windgrass (criteria 0-5)” value was 5 (Herbicidal rate of 90% or more (almost completely withered)).

Each compound was assayed on chickweed (assay: Test Example 4: herbicidal effect by soil treatment (Table 19, symbol P)). Conditions: amount of applied herbicide 320 g/ha.
Assay type: in vivo, common chickweed (Stellaria media)
Summary of the method: as §2
`Cc1nn(C)c(=O)c(-c2c(-c3cccc(OCC(C)C)c3)sc3ccc(F)cc23)c1O` [2-221] was tested, and the “P: chickweed, herbicidal effect rating” value was 3 (Herbicidal rate of 40% or more and less than 70%). For `Cc1nn(C)c(=O)c(-c2c(-c3cccc(OC(C)(C)C)c3)sc3ccc(F)cc23)c1O` [2-223], the “herbicidal effect on P: chickweed” value was 4 (Herbicidal rate of 70% or more and less than 90%).

What follows are compounds tested on chickweed (assay: Test Example 5: herbicidal effect by foliage application, plastic box (Table 20, symbol P)). Conditions: foliage application, 320 g/ha, evaluated three weeks after application.
Assay type: in vivo, common chickweed (Stellaria media)
Summary of the method: as §1
For `Cc1nn(C)c(=O)c(-c2c(-c3cccc(OCC(C)C)c3)sc3ccc(F)cc23)c1O` [2-221], the “herbicidal effect on P: chickweed (criteria 0-5)” value was 5 (Herbicidal rate of 90% or more (almost completely withered)). `Cc1nn(C)c(=O)c(-c2c(-c3cccc(OC(C)(C)C)c3)sc3ccc(F)cc23)c1O` [2-223] was tested, and the “herbicidal effect on P: chickweed (criteria 0-5)” value was 5 (Herbicidal rate of 90% or more (almost completely withered)).

These compounds were tested on Japanese bulrush (assay: Test Example 2: herbicidal activity, application during weed generation under submerged conditions (Table 17, symbol B)). Conditions: AAH 320 g/ha; application during weed generation, submerged conditions.
Assay type: in vivo, Japanese bulrush (Schoenoplectus juncoides)
Summary of the method: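 In this pot test, flooded alluvial soil (water depth 4 cm) holds all three species sown as a mixture. Once seedlings have one to two leaves, the compound's emulsion, thinned with water to the intended dose, is poured on the water; grading follows after three weeks on the earlier criteria.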
`Cc1nn(C)c(=O)c(-c2c(-c3cccc(OCC(C)C)c3)sc3ccc(F)cc23)c1O` [2-221] was tested, and the “herbicidal effect rating, B: Japanese bulrush” value was 3 (Herbicidal rate of 40% or more and less than 70%). `Cc1nn(C)c(=O)c(-c2c(-c3cccc(OC(C)(C)C)c3)sc3ccc(F)cc23)c1O` [2-223] was tested, and the “herbicidal effect rating, B: Japanese bulrush” value was 2 (Herbicidal rate of 20% or more and less than 40%).

Each compound was assayed on velvetleaf (assay: Test Example 4: herbicidal effect by soil treatment (Table 19, symbol M)). Conditions: amount of applied herbicide 320 g/ha.
Assay type: in vivo, velvetleaf (Abutilon theophrasti)
Summary of the method: as §2
For `Cc1nn(C)c(=O)c(-c2c(-c3cccc(OCC(C)C)c3)sc3ccc(F)cc23)c1O` [2-221], the “M: velvetleaf, herbicidal effect rating” value was 4 (Herbicidal rate of 70% or more and less than 90%). In the case of `Cc1nn(C)c(=O)c(-c2c(-c3cccc(OC(C)(C)C)c3)sc3ccc(F)cc23)c1O` [2-223], the “herbicidal effect on M: velvetleaf” value is reported as 1 (Herbicidal rate of 5% or more and less than 20%).

What follows are compounds tested on velvetleaf (assay: Test Example 5: herbicidal effect by foliage application, plastic box (Table 20, symbol M)). Conditions: foliage application, 320 g/ha, evaluated three weeks after application.
Assay type: in vivo, velvetleaf (Abutilon theophrasti)
Summary of the method: as §1
For `Cc1nn(C)c(=O)c(-c2c(-c3cccc(OCC(C)C)c3)sc3ccc(F)cc23)c1O` [2-221], the “herbicidal effect on M: velvetleaf (criteria 0-5)” value was 5 (Herbicidal rate of 90% or more (almost completely withered)). `Cc1nn(C)c(=O)c(-c2c(-c3cccc(OC(C)(C)C)c3)sc3ccc(F)cc23)c1O` [2-223] was tested, and the “herbicidal effect on M: velvetleaf (criteria 0-5)” value was 5 (Herbicidal rate of 90% or more (almost completely withered)).

Each compound was assayed on blackgrass (assay: Test Example 4: herbicidal effect by soil treatment (Table 19, symbol J)). Conditions: amount of applied herbicide 320 g/ha.
Assay type: in vivo, blackgrass (Alopecurus myosuroides)
Summary of the method: as §2
With `Cc1nn(C)c(=O)c(-c2c(-c3cccc(OCC(C)C)c3)sc3ccc(F)cc23)c1O` [2-221] the “J: blackgrass, herbicidal effect rating” value was 5 (Herbicidal rate of 90% or more (almost completely withered)). With `Cc1nn(C)c(=O)c(-c2c(-c3cccc(OC(C)(C)C)c3)sc3ccc(F)cc23)c1O` [2-223] the “herbicidal effect on J: blackgrass” value was 0 (Herbicidal rate of 5% or less (almost no effect)).

These compounds were tested on green foxtail (assay: Test Example 4: herbicidal effect by soil treatment (Table 19, symbol G)). Conditions: amount of applied herbicide 320 g/ha.
Assay type: in vivo, green foxtail (Setaria viridis)
Summary of the method: as §2
In the case of `Cc1nn(C)c(=O)c(-c2c(-c3cccc(OCC(C)C)c3)sc3ccc(F)cc23)c1O` [2-221], the “G: green foxtail, herbicidal effect rating” value is reported as 5 (Herbicidal rate of 90% or more (almost completely withered)). For `Cc1nn(C)c(=O)c(-c2c(-c3cccc(OC(C)(C)C)c3)sc3ccc(F)cc23)c1O` [2-223], the “herbicidal effect on G: green foxtail” value was 3 (Herbicidal rate of 40% or more and less than 70%).

The compounds below were run on oval-leafed pondweed (assay: Test Example 1: herbicidal activity, application before weed generation under submerged conditions (Table 16, symbol C)). Conditions: 320 g/ha applied herbicide.
Assay type: in vivo, oval-leafed pondweed (Monochoria vaginalis)
Summary of the method: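 Submerged Wagner pots (alluvial soil, 4 cm water) sown with weed seeds and planted with 2.5-leaf rice seedlings; emulsifiable concentrate diluted in water applied to water surface on sowing day. Held in greenhouse at 25-30 °C; injury scored 0-5 by herbicidal rate after three weeks.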
For `Cc1nn(C)c(=O)c(-c2c(-c3cccc(OCC(C)C)c3)sc3ccc(F)cc23)c1O` [2-221], the “Herbicidal effect on C: oval-leafed pondweed (grade 0-5)” value was 5 (Herbicidal rate of 90% or more (almost completely withered)). For `Cc1nn(C)c(=O)c(-c2c(-c3cccc(OC(C)(C)C)c3)sc3ccc(F)cc23)c1O` [2-223], the “Herbicidal effect on C: oval-leafed pondweed (grade 0-5)” value was 2 (Herbicidal rate of 20% or more and less than 40%).

What follows are compounds tested on redroot pigweed (assay: Test Example 5: herbicidal effect by foliage application, plastic box (Table 20, symbol N)). Conditions: foliage application, 320 g/ha, evaluated three weeks after application.
Assay type: in vivo, redroot pigweed (Amaranthus retroflexus)
Summary of the method: as §1
`Cc1nn(C)c(=O)c(-c2c(-c3cccc(OCC(C)C)c3)sc3ccc(F)cc23)c1O` [2-221] was tested, and the “herbicidal effect on N: redroot pigweed (criteria 0-5)” value was 5 (Herbicidal rate of 90% or more (almost completely withered)). `Cc1nn(C)c(=O)c(-c2c(-c3cccc(OC(C)(C)C)c3)sc3ccc(F)cc23)c1O` [2-223] was tested, and the “herbicidal effect on N: redroot pigweed (criteria 0-5)” value was 4 (Herbicidal rate of 70% or more and less than 90%).

The compounds below were run on wild oat (assay: Test Example 4: herbicidal effect by soil treatment (Table 19, symbol I)). Conditions: amount of applied herbicide 320 g/ha.
Assay type: in vivo, wild oat (Avena fatua)
Summary of the method: as §2
In the case of `Cc1nn(C)c(=O)c(-c2c(-c3cccc(OCC(C)C)c3)sc3ccc(F)cc23)c1O` [2-221], the “I: wild oat, herbicidal effect rating” value is reported as 0 (Herbicidal rate of 5% or less (almost no effect)). For `Cc1nn(C)c(=O)c(-c2c(-c3cccc(OC(C)(C)C)c3)sc3ccc(F)cc23)c1O` [2-223], the “herbicidal effect on I: wild oat” value was 0 (Herbicidal rate of 5% or less (almost no effect)).

Each compound was assayed on Italian ryegrass (assay: Test Example 5: herbicidal effect by foliage application, plastic box (Table 20, symbol K)). Conditions: foliage application, 320 g/ha, evaluated three weeks after application.
Assay type: in vivo, Italian ryegrass (Lolium multiflorum)
Summary of the method: as §1
For `Cc1nn(C)c(=O)c(-c2c(-c3cccc(OCC(C)C)c3)sc3ccc(F)cc23)c1O` [2-221], the “herbicidal effect on K: Italian ryegrass (criteria 0-5)” value was 5 (Herbicidal rate of 90% or more (almost completely withered)). With `Cc1nn(C)c(=O)c(-c2c(-c3cccc(OC(C)(C)C)c3)sc3ccc(F)cc23)c1O` [2-223] the “herbicidal effect on K: Italian ryegrass (criteria 0-5)” value was 1 (Herbicidal rate of 5% or more and less than 20%).

What follows are compounds tested on lambsquarters (assay: Test Example 4: herbicidal effect by soil treatment (Table 19, symbol O)). Conditions: amount of applied herbicide 320 g/ha.
Assay type: in vivo, lambsquarters (Chenopodium album)
Summary of the method: as §2
In the case of `Cc1nn(C)c(=O)c(-c2c(-c3cccc(OCC(C)C)c3)sc3ccc(F)cc23)c1O` [2-221], the “O: lambsquarters, herbicidal effect rating” value is reported as 4 (Herbicidal rate of 70% or more and less than 90%). For `Cc1nn(C)c(=O)c(-c2c(-c3cccc(OC(C)(C)C)c3)sc3ccc(F)cc23)c1O` [2-223], the “herbicidal effect on O: lambsquarters” value was 3 (Herbicidal rate of 40% or more and less than 70%).

These compounds were tested on barnyard grass (assay: Test Example 4: herbicidal effect by soil treatment (Table 19, symbol H)). Conditions: amount of applied herbicide 320 g/ha.
Assay type: in vivo, barnyard grass (Echinochloa crus-galli)
Summary of the method: as §2
`Cc1nn(C)c(=O)c(-c2c(-c3cccc(OCC(C)C)c3)sc3ccc(F)cc23)c1O` [2-221] was tested, and the “H: barnyard grass, herbicidal effect rating” value was 5 (Herbicidal rate of 90% or more (almost completely withered)). `Cc1nn(C)c(=O)c(-c2c(-c3cccc(OC(C)(C)C)c3)sc3ccc(F)cc23)c1O` [2-223] was tested, and the “herbicidal effect on H: barnyard grass” value was 3 (Herbicidal rate of 40% or more and less than 70%).

Reference: patent publication US20230085307A1, “PYRIDAZINONE COMPOUND AND HERBICIDE” (NISSAN CHEMICAL CORPORATION, priority 2019, published 2023)
